Laboratory results taken from patent US9283234B2, “Compositions and methods for suppressing endometrial proliferation” (REPROS THERAPEUTICS INC., priority 2006, dated 2016).

Assays:
[1] = Attardi et al., 2002; cited from earlier work
[2] = tested on: endometrium; experiment: Six month endometriosis study: endometrial thickness (ultrasound) / endometrial proliferation; assay type: in vivo, pre-menopausal adult women
Description: Comparisons were made to both baseline and visit one ultrasound measurements of endometrial thickness. […]

[3] = Six month endometriosis study: side effects and bleeding; assay type: in vivo, pre-menopausal adult women; settings: for non-menstrual spotting and bleeding with excessive endometrial thickening, D&C performed: treatment phase
Protocol: Although this was a small study and no definitive conclusions can be made from the safety data, there was no single signal of safety observed.
A similar event was not seen at the 50 mg dose during the treatment phase. Greater than normal bleeding occurred in two patients in the 50 mg CDB-4124 group after treatment was stopped and a D&C was performed in one and the other successfully managed conservatively.

[4] = Six month endometriosis study: estrogen and biomarkers of bone resorption; assay type: in vivo, pre-menopausal adult women
Protocol: Thirty-nine pre-menopausal adult women diagnosed with endometriosis were the subject of a six month study of Proellex™ (CDB-4124) in the treatment of endometriosis. The study included three dose levels of CDB-4124 as well as a positive control arm. The positive control was LUCRIN, a GnRH agonist, commonly used for the treatment of endometriosis (also known as LUPRON. CDB-4124 was administered in a double blinded fashion as a daily oral capsule at dosages of 12.5 mg/day (n=2), 25 mg/day (n=3) and 50 mg/day (n=3). Another group (n=4) were injected with a slow release formulation of LUCRIN once per month as a positive control.

[5] = tested on: pain associated with endometriosis; experiment: Six month endometriosis study: pain diaries and symptom surveys; assay type: in vivo, pre-menopausal adult women; set-up: key to score for intensity of pain on a bad day: 0-10 scale; 0 = no pain, 10 = extreme pain
Protocol: Pain reduction also occurred more rapidly than with the active control, LUCRIN. The response of pain to treatment in this study was analyzed in two ways. Patients in the study maintained daily pain diaries to record the severity and frequency of pain. In addition, at each office visit, patients filled out endometriosis symptom surveys that included a questionnaire that evaluated intensity of pain on a bad day on a scale of 0-10 with 10 being the greatest intensity. […] There appeared to be a dose dependent effect on pain reduction. […] This decrease in duration of pain was statistically better (p=0.0012) than the 117.8 (74%; standard deviation 51.4 days) pain free days achieved with LUCRIN. […] Patients on CDB-4124 12.5 mg and 25 mg doses had 115.9 (66%; standard deviation 69.2 days) and 133.6 (75%; standard deviation 27.4 days) pain free days, respectively. […] The 25 mg and 12.5 mg doses of CDB-4124 were not statistically different from LUCRIN. […] The intensity of pain was asked by the question: “On a scale of 1-10, with 0 being no pain and 10 being extreme pain, how intense was your pain on a bad day?” The mean scores for intensity of pain at baseline were 6.3 for the CDB-4124 groups and 6.1 for the LUCRIN group. […] At month three all four active treatment groups had statistically significant reduction in pain compared with baseline, with the following scores: 3.7 (p=0.03) for 12.5 mg CDB-4124, 3.2 (p=0.03) for 25 mg CDB-4124, 1.6 (p=0.015) for 50 mg CDB-4124 and 1.5 (p=0.016) for LUCRIN. These dose related reductions continued until month six when the values for pain intensity were 2.0 (p=0.008), 2.8 (p=0.023), 0.6 (p=0.004) and 0.7 (p=0.016), respectively. Two months after stopping treatment pain returned and was of similar intensity in all four treatment groups.

[6] = Measuring serum cortisol in rats; assay type: in vivo; settings: for serum cortisol versus control group: 10 mg/kg, 21 days of chronic dosing, FIG. 1
[7] = estrogenic, androgenic, anti-estrogenic and anti-androgenic activities
Description: These methods include receptor binding and in vivo bioassays such as anti-McGinty, anti-Clauberg, glucocorticoid, estrogenic, androgenic, anti-glucocorticoid (AG), anti-estrogen, and anti-androgen activities as well as post-coital and anti-ovulatory activities where in the leading compounds of the instant invention are used as a reference.

[8] = Measuring serum corticosterone in rats; settings: for differences in serum corticosterone between treatment groups: progesterone, CDB-4124 and RU-486 groups compared
[9] = target: T1, glucocorticoid receptor (rbGR) (Oryctolagus cuniculus, UniProt P59667); experiment: glucocorticoid receptor binding; set-up: species or system rabbit
T1 construct: cytosol containing PR or GR were prepared in TEGMD buffer; from tissue; host or cells: thymus of estradiol-primed immature rabbits (cytosol)
T1 sequence (P59667 1-772): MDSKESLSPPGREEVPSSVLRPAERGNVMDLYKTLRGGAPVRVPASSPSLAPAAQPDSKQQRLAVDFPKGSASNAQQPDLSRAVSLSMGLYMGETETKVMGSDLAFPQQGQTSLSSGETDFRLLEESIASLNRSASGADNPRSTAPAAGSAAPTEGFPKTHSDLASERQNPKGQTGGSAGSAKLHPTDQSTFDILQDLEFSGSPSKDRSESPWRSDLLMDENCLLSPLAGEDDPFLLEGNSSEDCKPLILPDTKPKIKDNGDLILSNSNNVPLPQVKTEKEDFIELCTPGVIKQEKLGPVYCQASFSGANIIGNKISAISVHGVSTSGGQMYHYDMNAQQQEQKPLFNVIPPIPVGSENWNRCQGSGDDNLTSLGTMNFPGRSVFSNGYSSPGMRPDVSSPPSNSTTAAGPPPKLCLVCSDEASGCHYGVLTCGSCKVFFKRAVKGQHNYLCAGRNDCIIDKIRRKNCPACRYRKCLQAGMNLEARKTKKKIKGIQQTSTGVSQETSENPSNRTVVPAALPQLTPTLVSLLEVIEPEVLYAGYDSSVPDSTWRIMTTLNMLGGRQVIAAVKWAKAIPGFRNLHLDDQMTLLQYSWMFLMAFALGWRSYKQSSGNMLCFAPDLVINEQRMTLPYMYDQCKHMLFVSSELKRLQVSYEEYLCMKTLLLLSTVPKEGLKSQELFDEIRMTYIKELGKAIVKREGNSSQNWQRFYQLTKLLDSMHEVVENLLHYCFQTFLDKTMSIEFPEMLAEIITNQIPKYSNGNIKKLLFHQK
Protocol: Certain antiprogestins were tested in receptor-binding assays for their ability to bind rabbit progesterone receptor (rbPR) and glucocorticoid receptor (rbGR). […] For PR binding, the cytosol was incubated with 6 nM 1,2-[^3H]progesterone (50.0 Ci/mmole) and competitors were added at concentrations from 2 to 100 nM. For binding to GR, the cytosol was incubated with 6 nM 6,7-[^3H]-dexamethasone (40 Ci/mmol) and test compounds were added at concentrations from 20 to 100 nM. After overnight incubation at 4 C, bound and unbound [^3H] steroids were separated by addition of dextran-coated charcoal and centrifugation at 2100×g for 15 min at 4 C. Supernatants containing the [^3H]-steroid receptor complexes were decanted into vials containing 4 ml OPTIFLUOR scintillation fluid (Packard Instrument Co.), vortexed, equilibrated in a liquid scintillation counter for 30 minutes and then counted for 2 minutes. […] The standards for the PR and GR assays were unlabeled progesterone and dexamethasone, respectively.

**Q.** With CNc1ccc([C@H]2C[C@@]3(C)[C@@H](CC[C@]3(OC(C)=O)C(=O)COC)[C@@H]3CCC4=CC(=O)CCC4=C32)cc1 [CDB-4453, 21-methoxy-17α-acetoxy-11β-(4-N-methylaminophenyl)-19-norpregna-4,9-diene-3,20-dione] as the molecule, how does the “anti-glucocorticoid activity relative to parent CDB-4124” value [1] read?
**A.** Its value is “even lower anti-glucocorticoid activity than its parent”.

**Q.** Which “women exhibiting thickened endometrium after three months” value (shortened to “women exhibiting thickened endometrium”) ([2]; 12.5 mg (n=4)) does the source give for COCC(=O)[C@@]1(OC(C)=O)CC[C@H]2[C@@H]3CCC4=CC(=O)CCC4=C3[C@@H](c3ccc(N(C)C)cc3)C[C@@]21C [CDB-4124, 21-methoxy-17α-acetoxy-11β-(4 N,N-dimethylaminophenyl)-19-norpregna-4,9-diene-3,20-dione] here?
**A.** Its value is “two women”.

**Q.** And the “women exhibiting thickened endometrium” value ([2]; 25 mg (n=4))?
**A.** The value was “One person”.

**Q.** What about the “women exhibiting thickened endometrium” value ([2]; 50 mg (n=3)) of the same molecule?
**A.** Its value is “none of the women”.

**Q.** And the “endometrial proliferation in adult females” value ([2]; high dosage 50 mg/day)?
**A.** The value was “suppresses endometrial proliferation”.

**Q.** And the “endometrial proliferation in adult females” value ([2]; lower dosages 25 mg/day and 12.5 mg/day)?
**A.** The value was “does not suppress endometrial proliferation”.

**Q.** And the “non-menstrual spotting and bleeding with excessive endometrial thickening, D&C performed” value ([3]; 12.5 mg and 25 mg groups)?
**A.** The value was “two cases”.

**Q.** What about the “non-menstrual spotting and bleeding with excessive endometrial thickening, D&C performed” value ([3]; 50 mg dose) of the same molecule?
**A.** The value was “not seen”.

**Q.** And the “greater than normal bleeding after treatment was stopped” value ([3]; 50 mg group)?
**A.** The value was “two patients”.

**Q.** And the “estrogen concentration (mean)” value ([4]; all doses of CDB-4124)?
**A.** The value was over 40 pg/mL.

**Q.** And the “biomarkers of bone resorption compared with baseline” value ([4]; month three (LUCRIN, p=0.023), three and six months (any dose arm of CDB-4124))?
**A.** The value was “no significant changes in biomarkers of bone resorption”.

**Q.** And the “days of pain over the first three months versus highest dose of CDB-4124 or LUCRIN” value ([5]; 25 mg and 12.5 mg daily oral)?
**A.** Its value is “more days of pain”.

**Q.** What about the “relief from pain (intensity) by the first month” value ([5]; 25 mg and 50 mg groups) of the same molecule?
**A.** Its value is “Statistically significant relief from pain”.

**Q.** What about the “days of pain at the end of the first month compared with baseline” value ([5]; 50 mg, p=0.031) of the same molecule?
**A.** Its value is “statistically significant reduction in days of pain”.

**Q.** And the “distress related to pain over the six month exposure” value ([5]; all doses, on average)?
**A.** Its value is “reduced distress related to pain”.

**Q.** And the “mean score for intensity of pain on a bad day” value ([5]; baseline, scale 0-10)?
**A.** The value was 6.3.

**Q.** What about the “score for intensity of pain on a bad day” value ([5]; month six, 12.5 mg) of the same molecule?
**A.** Its value is 2.0.

**Q.** What about the “score for intensity of pain on a bad day” value ([5]; month six, 25 mg) of the same molecule?
**A.** The value was 2.8.

**Q.** What about the “score for intensity of pain on a bad day” value ([5]; month six, 50 mg) of the same molecule?
**A.** The value was 0.6.

**Q.** And the “score for intensity of pain on a bad day” value ([5]; month three, 12.5 mg)?
**A.** Its value is 3.7.

**Q.** What about the “score for intensity of pain on a bad day” value ([5]; month three, 25 mg) of the same molecule?
**A.** The value was 3.2.

**Q.** And the “score for intensity of pain on a bad day” value ([5]; month three, 50 mg)?
**A.** The value was 1.6.

**Q.** What about the “serum cortisol versus control group” value [6] of the same molecule?
**A.** The value was “significantly higher levels of serum cortisol”.

**Q.** And the “dose-dependent effect on serum cortisol” value ([6]; increasing doses, FIG. 2)?
**A.** The value was “increased cortisol”.

**Q.** What about the “estrogenic, androgenic, anti-estrogenic, and anti-androgenic activities” value [7] of the same molecule?
**A.** Its value is “lack”.

**Q.** What about the “effect on the primary glucocorticoid of the rat (corticosterone)” value [8] of the same molecule?
**A.** The value was “no strong effect”.

**Q.** What about the “differences in serum corticosterone between treatment groups” value [8] of the same molecule?
**A.** Its value is “No differences in serum corticosterone”.

**Q.** Which “serum cortisol versus control group” value [6] does the source give for CC#C[C@]1(O)CC[C@H]2[C@@H]3CCC4=CC(=O)CCC4=C3[C@@H](c3ccc(N(C)C)cc3)C[C@@]21C [RU 486, 11β-[p-(Dimethylamino)phenyl]-17β-hydroxy-17-(1-propynyl)estra-4,9-dien-3-one, reference compound] here?
**A.** The value was “no significant difference in the levels of cortisol”.

**Q.** And the “differences in serum corticosterone between treatment groups” value [8]?
**A.** Its value is “No differences in serum corticosterone”.

**Q.** What about the “anti-glucocorticoid receptor activity / glucocorticoid receptor binding” value [9] of the same molecule?
**A.** Its value is “moderately active in glucocorticoid receptor binding”.
